Measurements: patent publication US20020132845A1, “Compositions and methods for the prevention and treatment of tissue ischemia” (priority 2000, published 2002)

System: myocardial infarction by left coronary artery occlusion
Assay: Model of myocardial infarction: left coronary ligation (Example 5)
Assay type: in vivo, rat
Settings: dose of 0.67 mg/kg
Description: Male Sprague-Dawley weighing 250-320 g are allowed free access to water and commercial rodent diet under standard laboratory conditions. Room temperature is maintained at 20-23° C. and room illumination is on a 12/12-hour light/dark cycle. Animals are acclimatized to the laboratory environment 5 to 7 days prior to the study and are fasted overnight prior to surgery.
Rats are anaesthetized with Urethane (1.2-1.5 gm/kg). Core body temperature is maintained at 37° C. by using a heating blanket. The surgical area is shaved, and a ventral midline incision is made to expose the trachea and jugular area. A catheter (PE50) is placed in the jugular for administration of compound and maintenance anesthesia. The trachea is incised and a 14-16-gauge modified intravenous catheter is inserted and tied in place as an endotracheal tube. The animal is placed in right lateral recumbency and initially placed on a Harvard ventilator with a tidal volume of 5-10 ml/kg. 100% O2 is delivered to the animals by the ventilator. ECG electrodes are placed to record a standard Lead II ECG. The surgical site is cleaned with alcohol swab, and a skin incision is made over rib cage over the 4th-5th intercostal space. […] The ECG is monitored for S-T changes indicative of ischemia. […] The ECG is monitored for the first 10 minutes of reperfusion. […]

Substance: bromo-quercetin
- infarct size: reduce infarct size
